Experimental data as given in PMC7793009 (ACS infectious diseases, 2020).
Read-outs that look alike come from different tables or passages of the source.

Assays:
[1] = system: ARE activity induced by over-expression of Nrf2; assay: cells; assay type: cell-based; settings: for IC50: read-out: ARE/Nrf2 IC50
[2] = system: tBHQ-induced ARE activity; assay: cells; assay type: cell-based; settings: read-out: ARE/GFP/tBHQ IC50
NF-κB = assay: cells; assay type: cell-based; settings: read-out: NF-κB IC50
HEK293T cells = settings: 24 h, ATP content (CellTiter-Glo)
p62-induced ARE activity = assay: cells; assay type: cell-based; settings: read-out: ARE/p62 IC50
[3] = target: constitutively expressed firefly luciferase (ce-FF) (Photinus pyralis, UniProt P08659); assay: cell-based; assay type: cell-based
Sequence of constitutively expressed firefly luciferase (ce-FF) (P08659 whole entry): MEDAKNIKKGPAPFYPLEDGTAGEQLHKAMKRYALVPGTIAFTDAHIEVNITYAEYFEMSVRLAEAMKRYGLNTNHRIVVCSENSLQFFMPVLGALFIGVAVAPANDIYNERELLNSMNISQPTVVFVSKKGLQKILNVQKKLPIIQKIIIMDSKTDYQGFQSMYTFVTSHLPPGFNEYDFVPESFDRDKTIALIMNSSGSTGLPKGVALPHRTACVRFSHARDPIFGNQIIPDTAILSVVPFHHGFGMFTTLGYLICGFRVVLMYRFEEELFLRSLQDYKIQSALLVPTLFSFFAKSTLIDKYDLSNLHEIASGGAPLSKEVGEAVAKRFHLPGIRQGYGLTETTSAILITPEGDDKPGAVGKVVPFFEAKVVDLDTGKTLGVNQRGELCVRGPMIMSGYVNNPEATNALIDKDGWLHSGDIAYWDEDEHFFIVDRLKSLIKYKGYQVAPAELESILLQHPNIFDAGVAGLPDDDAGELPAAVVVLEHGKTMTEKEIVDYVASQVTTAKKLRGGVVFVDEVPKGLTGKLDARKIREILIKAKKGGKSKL

endogenous Nrf2 = assay type: cell-based
[4] = system: mVP24-induced ARE activity; assay: siRNA; assay type: cell-based; settings: two p53 siRNAs vs scramble, mVP24/ARE HEK293T, 24 h treatment
[5] = system: mVP24-induced ARE activity; assay: ARE/mVP24 firefly luciferase reporter assay; assay type: cell-based; settings: plateau around 1 μM of compound
in vitro = settings: human
Flag-tagged mVP24 = assay type: cell-based, Marburg virus

Nc1ncnc2c1c(I)cn2[C@@H]1O[C@H](CO)[C@@H](O)[C@H]1O [5-iodotubercidin]
IC50 [1]: 1200 nM
IC50 [2]: 200 nM
IC50 (NF-κB): 6.5 µM
CC50 (HEK293T cells): > 50 µM
IC50 (p62-induced ARE activity): 58 nM
IC50 ([3]; read-out: Ce-FF IC50): 15 µM

O=C(N[C@@H]1CCCc2c1[nH]c1ccc(Cl)cc21)c1ccccn1 [GSK983]
Nrf2 expression relative to DMSO control (endogenous Nrf2): decreased
effect of p53 knockdown on inhibition of mVP24-induced ARE activity [4]: did not result in a reversal of inhibition

COc1cc([C@@H]2c3cc4c(cc3[C@H](O)[C@H]3COC(=O)[C@H]23)OCO4)cc(OC)c1OC [Podophyllotoxin, podophyllotoxin]
Nrf2 expression relative to DMSO control (endogenous Nrf2; ARE/mVP24 HEK293T cells, 1 and 5 μM, 24 h, western blot): affected
inhibition of ARE activity following over-expression of Nrf2 (in words) ([1]; ARE/Nrf2 assay): did not inhibit
IC50 ([1]; Homo sapiens, HEK-293T, 24 h): > 50000 nM
IC50 ([2]; Homo sapiens, HEK-293T, 24 h): 26 nM
IC50 (NF-κB; Homo sapiens, HEK-293T, 6 h): > 50 µM
plateau of inhibitory activity against mVP24-induced ARE activity [5]: approximately 80%
CC50 at 24 h (in vitro): > 50 µM
IC50 (p62-induced ARE activity; Homo sapiens, HEK-293T, 24 h): 3100 nM
IC50 [3]: > 50 µM
mVP24 expression relative to DMSO control (Flag-tagged mVP24): affected
